Test results reported in patent publication US12286435B2, “Compound having benzo seven-membered ring structure, preparation method therefor, and use thereof” (BIONNA (BEIJING) MEDICAL TECHNOLOGY CO., LTD., priority 2019, dated 2025).

What was measured:
[1] = molecular target: BRD4 BD1 protein (Homo sapiens (Human), UniProt O60885); experiment: Fluorescence polarization binding affinity (Ki) with BRD4 BD1 protein; conditions: fluorescence polarization; Ki calculated from IC50
[2] = molecular target: BRD4 BD2 protein (Homo sapiens (Human), UniProt O60885); experiment: Fluorescence polarization binding affinity (Ki) with BRD4 BD2 protein; conditions: fluorescence polarization; Ki calculated from IC50
[3] = system: multiple myeloma MM.1S cell line; experiment: Cell viability (CCK-8), multiple myeloma MM.1S; type: cell-based; conditions: Homo sapiens, MM1.S, 96 h, MM.1S cells, 4 days, CCK-8, 50% inhibition of cell growth
Outline: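 Cells (about 3000-5000 per well) exposed to 3-fold serial dilutions of compound for 4 days at 37° C, 5% CO2. CCK-8 added 2-4 h, absorbance at 450 nm, viability normalised to untreated cells after medium-only blank subtraction; IC50 is concentration giving 50% growth inhibition.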

[4] = system: breast cancer MDA-MB-231 cell line; experiment: Cell viability (CCK-8), breast cancer MDA-MB-231; type: cell-based; conditions: Homo sapiens, 96 h; MDA-MB-231 cells, 4 days, CCK-8, 50% inhibition of cell growth
Protocol: (§1) 3. Determination of cell viability of the compound
(§2) The sample to be tested was dissolved with 100% dimethyl sulfoxide to prepare a 20 mM stock solution of the compound, which was diluted with 100% dimethyl sulfoxide to the highest compound concentration required for the experiment (2.5 mM).
(§3) First, 145 uL of a complete cell culture medium was added to wells B1-G1 of a 96-well flat-bottomed tansparent cell culture plate, and 100 uL of the complete medium was added to wells B2-G12, respectively. Then, 5 uL of the 2.5 mM solution of the compound was added to wells B1-D1 and E1-G1 respectively, and then diluted gradiently by 3-folds to B12-D12 and E12-G12 in sequence. Finally, 50 uL of the solution of the cells to be tested was added to each well, with about 3000-5000 cells per well, and a total volume of 150 uL per well.
(§4) In the experiment, in addition to the tested compound, two other control groups were set up: 1) a control group adding the cells and the complete medium, but without adding the compound; 2) a control group adding the complete medium only, without adding the cells and the compound. The 96-well plate was placed in a 37° C. cell culture incubator containing 5% carbon dioxide for 4 days, added with 15 uL of a CCK-8 reagent per well, and then incubated at 37° C. for 2-4 hours. The 96-well plate was read on a TECAN microplate reader, and the absorbance value at 450 nm wavelength was taken.
(§5) The effect of different concentrations of the compound on cell viability was calculated by the following equation: [absorption value of the experimental group−absorption value of pure cell culture medium without the cells or the compound]/[absorption value of the control group with the tumor cells but no testing compound−absorption value of pure cell culture medium without the cell or the compound]×100%.
(§6) The above data were precessed by software, and the IC50 value was the concentration of the compound corresponding to the 50% inhibition rate of cell growth.
(§7) Based on the above test method of the compound on cell viability, a variety of […] cancer cell lines were tested, using multiple myeloma MM.1S, breast cancer MDA-MB-231 and leukemia MV4-11 cell lines as exemples. Using this test method, the IC50 values of partial compounds in the examples of the present invention measured in multiple myeloma MM.1S, breast cancer MDA-MB-231 cell lines and leukemia MV4-11 cell lines were shown in Table 2.

[5] = system: leukemia MV4-11 cell line; experiment: Cell viability (CCK-8), leukemia MV4-11; type: cell-based; conditions: Homo sapiens, 96 h; MV4-11 cells, 4 days, CCK-8, 50% inhibition of cell growth
Protocol: as §1, §2, §3, §4, §5, §6, §7

SMILES | Ki [1] | Ki [2] | IC50 [3] | IC50 [4] | IC50 [5]
Cc1nnn2c1-c1ccc(-c3cnc4[nH]cnc4c3)cc1C(Nc1ccc(Cl)cc1)CC2 (centres unmarked) [RB43, N-(4-chlorophenyl)-9-(3H-imidazo[4,5-b]pyridin-6-yl)-1-methyl-6,7-dihydro-5H-benzo[c][1,2,3]triazolo[1,5-a]azepin-7-amine] | 45.8 nM | 14 nM | 1.1 nM | 105 nM | 
CCn1cc(-c2ccc3c(c2)C(Nc2ccc(Cl)cc2)CCn2nnc(C)c2-3)cn1 (centres unmarked) [RB05, N-(4-chlorophenyl)-9-(1-ethyl-1H-pyrazol-4-yl)-1-methyl-6,7-dihydro-5H-benzo[c][1,2,3]triazolo[1,5-a]azepin-7-amine] | 23.2 nM | 5.73 nM | 2.32 nM | 1 nM | < 0.1 nM
Cc1nnn2c1-c1ccc(-c3cnn(C)c3)cc1C(Nc1ccccc1N(C)C)CC2 (centres unmarked) [LB01, N^1,N^1-dimethyl-N^2-(1-methyl-9-(1-methyl-1H-pyrazol-4-yl)-6,7-dihydro-5H-benzo[c][1,2,3]triazolo[1,5-a]azepin-7-yl)benzene-1,2-diamine] | 94.8 nM | 26.9 nM | 4.28 nM | 450 nM | 
Cc1nnn2c1-c1ccc(-c3cnn(C)c3)cc1C(Nc1ccc(Cl)cc1)CC2 (centres unmarked) [RA180, N-(4-chlorophenyl)-1-methyl-9-(1-methyl-1H-pyrazol-4-yl)-6,7-dihydro-5H-benzo[c][1,2,3]triazolo[1,5-a]azepin-7-amine] | 33.7 nM | 7.6 nM | 2.34 nM | 11 nM | 
COc1ccc2c(c1)C(Nc1ccc(C#N)cc1)CCc1onc(C)c1-2 (centres unmarked) [FA06, 4-(8-methoxy-1-methyl-5,6-dihydro-4H-benzo[6,7]cyclohepta[1,2-d]isoxazol-6-yl)aminobenzonitrile] | 83.1 nM | 55.9 nM | 6.05 nM | 89 nM | 
Cc1nnn2c1-c1ccc(-c3cn(C)nn3)cc1C(Nc1ccc(Cl)cc1)CC2 (centres unmarked) [RB48, N-(4-chlorophenyl)-1-methyl-9-(1-methyl-1H-1,2,3-triazol-4-yl)-6,7-dihydro-5H-benzo[c][1,2,3]triazolo[1,5-a]azepin-7-amine] | 45.1 nM | 16.5 nM | 2.5 nM | 65 nM | 
Cc1nnn2c1-c1ccc(C3=CCN(C(C)C)CC3)cc1C(Nc1ccc(Cl)cc1)CC2 (centres unmarked) [LD24, N-(4-chlorophenyl)-9-(1-isopropyl-1,2,3,6-tetrahydropyridin-4-yl)-1-methyl-6,7-dihydro-5H-benzo[c][1,2,3]triazolo[1,5-a]azepin-7-amine 2,2,2-trifluoroacetate] | 293 nM | 21.6 nM | 447 nM |  | 19 nM
Cc1nnn2c1-c1ccc(C3=CCN(C(C)C)CC3)cc1[C@H](Nc1cccc(Cl)c1)CC2 [RE13 (R), (7R)—N-(3-chlorophenyl)-9-(1-isopropyl-1,2,3,6-tetrahydropyridin-4-yl)-1-methyl-6,7-dihydro-5H-benzo[c][1,2,3]triazolo[1,5-a]azepin-7-amine 2,2,2-trifluoroacetate] | 1420 nM | 14.8 nM | 546 nM |  | 126 nM
COC(=O)c1ccc(NC2CCn3nnc(C)c3-c3ccc(-c4cnn(C)c4)cc32)cc1 (centres unmarked) [LB37, methyl 4-((1-methyl-9-(1-methyl-1H-pyrazol-4-yl)-6,7-dihydro-5H-benzo[c][1,2,3]triazolo[1,5-a]azepin-7-yl)amino)benzoate] | 45 nM | 10.9 nM | 2.03 nM | 43 nM | 
Cc1nnn2c1-c1ccc(-c3cnn(C)c3)cc1C(Nc1ccccc1CO)CC2 (centres unmarked) [LB192, (2-((1-methyl-9-(1-methyl-1H-pyrazol-4-yl)-6,7-dihydro-5H-benzo[c][1,2,3]triazolo[1,5-a]azepin-7-yl)amino)phenyl)methanol] | 94.6 nM | 16.1 nM | < 1 nM |  | < 0.1 nM
